The test system of assay [1] is clinical isolates of MRSA USA300. The assay can be described thus: inhibitory effect on clinical isolates of MRSA USA300 (FIGS. 1A-B). Format: cell-based, Staphylococcus aureus. The method, then:
(§1) Iron-free enterobactin from E. coli was purchased from Sigma-Aldrich (E3910) and from EMC (Tübingen, Germany), iron-free salmochelin S4 was purchased from EMC (Tübingen, Germany).
(§2) Bacterial strains were provided by the Clinical Microbiology Laboratory at Sheba Medical Center.
(§3) Bacterial final inoculum was 5×10^5 colony-forming units ml^−1. Enterobactin and salmochelin were dissolved in 100% dimethylsulfoxide (DMSO) to a stock solution of 10 μM and further diluted using CAMHB to final concentrations.

For assay [2], the system named is MRSA SA 255. In words: broth microdilution growth inhibition (CLSI), MRSA SA 255. Format: cell-based, S. aureus. The conditions noted are these: CAMHB broth microdilution, read-out: concentration (μM) which inhibits 50% (or more) growth. The method, then:
as §1, §2, §3
On the technique in general: Dilution methods test growth across graded concentrations, often in twofold steps.

Assay [3] relates to S. aureus. The assay can be described thus: antimicrobial activity against S. aureus (combinations, iron ions; strain not named). Format: cell-based. Conditions: iron ions added; FIGS. 6A-B. The method, then: as §1, §2, §3
Assay [4] has as its system MSSA SA 197 USA300. In words: broth microdilution growth inhibition (CLSI), MSSA SA 197 USA300. It counts as cell-based, S. aureus. Conditions: CAMHB broth microdilution, read-out: concentration (μM) which inhibits 50% (or more) growth. The method, then: as §1, §2, §3
Assay [5] concerns MRSA SA 196. In words: broth microdilution growth inhibition (CLSI), MRSA SA 196. Format: cell-based, S. aureus. Conditions: CAMHB broth microdilution, read-out: concentration (μM) which inhibits 50% (or more) growth. The method, then:
as §1, §2, §3

Assay [6] deals with VRE 195. The assay can be described thus: inhibitory effect on clinical isolate VRE 195. It counts as cell-based, vancomycin resistant Enterococci. Conditions: FIG. 2A, FIG. 3A. The method, then:
as §1, §2, §3

Assay [7] concerns MSSA SA 256. The assay can be described thus: broth microdilution growth inhibition (CLSI), MSSA SA 256. Conditions: CAMHB broth microdilution, read-out: concentration (μM) which inhibits 50% (or more) growth. It counts as cell-based, S. aureus. The method, then: as §1, §2, §3
The subject of assay [8] is MRSA SA 198 USA300. In words: broth microdilution growth inhibition (CLSI), MRSA SA 198. It counts as cell-based, S. aureus. Conditions: CAMHB broth microdilution, read-out: concentration (μM) which inhibits 50% (or more) growth. The method, then: as §1, §2, §3
Assay [9] deals with S. aureus ATCC 25923. In words: broth microdilution growth inhibition (CLSI), S. aureus ATCC 25923. Format: cell-based. Conditions: CAMHB broth microdilution, read-out: concentration (μM) which inhibits 50% (or more) growth. The method, then: as §1, §2, §3
Assay [10] relates to MRSA SA 742 USA300. The assay can be described thus: broth microdilution growth inhibition (CLSI), MRSA SA 742 USA300. Format: cell-based, S. aureus. The conditions noted are these: CAMHB broth microdilution, read-out: concentration (μM) which inhibits 50% (or more) growth. The method, then:
as §1, §2, §3

Assay [11] relates to VRE 197. In words: inhibitory effect on clinical isolate VRE 197. Format: cell-based, vancomycin resistant Enterococci. The conditions noted are these: FIG. 2B, FIG. 3B. The method, then: as §1, §2, §3

As for `O=C(N[C@H]1COC(=O)[C@@H](NC(=O)c2cccc(O)c2O)COC(=O)[C@@H](NC(=O)c2cccc(O)c2O)COC1=O)c1cccc(O)c1O` [Enterobactin, enterobactin], the “inhibitory effect on clinical isolates of MRSA USA300” value in assay [1] is recorded as “inhibitory effect”. The IC50 in assay [2] was above 5 µM; in assay [4], above 5 µM; in [5], 5 µM; in [7], above 5 µM; in assay [8] it was above 5 µM; in assay [9], 6 ± 2.7 µM. The IC50 in [10] was found to be 10 µM. Further, the “antimicrobial activity against S. aureus in the presence of iron ions” value in [3] is given as “reduce but do not abolish”. The “inhibitory effect on clinical isolates of VRE 195” value in assay [6] is recorded as “inhibitory effect”. Besides, in assay [11], the “inhibitory effect on clinical isolates of VRE 197” value is on record as “inhibitory effect”.
Regarding `O=C(N[C@H]1COC(=O)[C@@H](NC(=O)c2cc([C@@H]3O[C@H](CO)[C@@H](O)[C@H](O)[C@H]3O)cc(O)c2O)COC(=O)[C@@H](NC(=O)c2cc([C@@H]3O[C@H](CO)[C@@H](O)[C@H](O)[C@H]3O)cc(O)c2O)COC1=O)c1cccc(O)c1O` [Salmochelin, Salmochelin S4], the “inhibitory effect on clinical isolates of MRSA USA300” value in assay [1] is “inhibitory effect”. The IC50 in assay [2] was 5 µM; in [4] it was 2.5 µM; in [5], 2.5 µM; in [7], 5 µM; in assay [8], 5 µM; in [9] it was 2.4 ± 0.22 µM. For the same molecule, the IC50 in assay [10] came to 3.12 ± 1.25 µM. Further, in [3], the “antimicrobial activity against S. aureus in the presence of iron ions” value was “reduce but do not abolish”. Moreover, the “inhibitory effect on clinical isolates of VRE 195” value in assay [6] is on record as “inhibitory effect”. Further, the “inhibitory effect on clinical isolates of VRE 197” value in assay [11] is on record as “inhibitory effect”.

For the origin of these results see patent US20240261257A1, “METHODS OF TREATING BACTERIAL INFECTIONS” (Sheba Impact Ltd., priority 2023, published 2024).
